Experimental data from patent US5942537A, “Method of inhibiting the transport of L-glutamate to treat CNS disorders” (The Regents of the University of California, priority 1993, dated 1999).

Experiments:
NMDA receptors = assay: 3H-L-glutamate binding to NMDA receptors in synaptic plasma membranes; set-up: species or system rat; conditions: for ^3 H-L-GLU binding to NMDA receptors, % of Control: % of control binding ± s.d., corrected for nonspecific binding; for inhibition of ^3 H-L-glutamate binding to the NMDA receptor (in words): as reported in Table 1
Protocol: (§1) The Synaptosomes were prepared by the procedure of (a) Booth, R. F. G.; Clark, J. B., Biochem J. 176, 365 (1978) and assayed for synaptosomal uptake as described by (b) Kuhar, M. M.; Zarbin, M. J., Neurochem 31, 251 (1978), both which are incorporated by reference herein. The binding specificities of the four PDC isomers were determined by testing both their ability to inhibit the high affinity transport of ^3 H-L-glutamate into synaptosomes and to block the binding of radioligands to each of the three receptor sites in a synaptic plasma membrane preparation (SPM) (Synaptic plasma membranes were prepared and NMDA receptor binding quantified as described by Monaghan, D. T.; Cotman, C. W., Proc. Nat. Acad. Sci. U.S.A. 83, 7532 (1986) incorporated by reference herein). When included in the ^3 H-L-glutamate uptake assay, as represented in FIG. 3, at only a 2-fold excess relative to L-glutamate (10 μM of ^3 H-L-glutamate vs. 20 μM of 7), the L-trans-2,4-PDC isomer reduced the rate of synaptosomal transport from control levels of 1.13 nmol min^-1 mg-protein^-1 to 0.16 nmol min^-1 mg-protein^-1. […] This selective inhibition by L-trans-2,4-PDCclearly delineates a preferred configurational and/or conformational relationship for binding to the glutamate uptake protein.
(§2) To further characterize the pharmacological specificity of the PDC conformers and identify other potential sites at which the transport inhibitor could bind, the compounds were tested for their ability to inhibit the binding of ^3 H-L-glutamate to NMDA receptors, ^3 H-KA binding to KA receptors, and ^3 H-AMPA (α-amino-3-hydroxy-5-methylisoxazole-4-propionic acid) binding to QA receptors. Binding to kainate receptors was quantified by the procedures of (a) Simon, J. R.; Contrera, J. F.; Kuhar, M. J., J. Neurochem 26, 141 (1976), and (b) London, E. D.; Coyle, J. T.; Molec. Pharm. 15, 492 (1979) which are incorporated by reference herein. Binding to quisqualate receptors (QA) were quantified as described by (c) Honore, T.; Lauridsen, J.; Krogsgaard-Larsen, P. J., Neurochem 1982, 38, 173, which are incorporated by reference herein. […] This lack of interaction with any of the excitatory receptors is in direct contrast with its potent inhibition of transport and identifies L-trans-2,4-PDC as a specific probe of the L-glutamate transport system.
(§3) Synaptic plasma membrane (SPMS) were prepared as previously described (Monaghan, D. T.; Cotman, C. W., Proc. Nat. Acad. Sci. U.S.A. 83:7532 (1986) incorporated by reference herein.) Briefly, male Sprague-Dawley rats (200 g) were decapitated, their forebrains were rapidly removed, and the brain tissue homogenized in 0.32M sucrose. Following differential centrifugation, a membrane fraction enriched in synapses, but low in myelin and mitochondria, was obtained. This membrane fraction was washed three times with […] Tris-acetate buffer, pH 7.2, and diluted into the appropriate assay buffer to about 200 μg protein/ml.
Binding to NMDA, KA, and QA receptors were quantified with ^3 H-L-glutamate, ^3 H-KA, and ^3 H-AMPA respectively. The binding assays were carried out using optimally selective conditions of time, temperature, and buffer for each of the three receptor classes. ^3 H-L-Glutamate binding was quantified under conditions that selectively label NMDA receptors. The SPMs were incubated with ^3 H-L-glutamate (10 nM, 50.9 Ci/mmol) in 50 mM Tris-acetate, pH 7.0, at 4° C. for 30 minutes. Non-specific binding was determined by the inclusion of 500 μM L-glutamate. KA receptors were quantified as previously described. ^3 H-KA (10 nM, 60 Ci/mmol) binding was determined in 50 mM Tris-citrate buffer, pH 7.0, at 4° C. for 30 min. Non-specific binding was determined by the inclusion of 100 μM unlabeled KA. QA receptors were measured with ^3 H-AMPA binding as described by Honore et al. J. Neurochem. 38:173-178 (1982). […]

KA receptors = assay: 3H-KA binding to KA receptors in synaptic plasma membranes; set-up: species or system rat; conditions: for ^3 H-KA binding to KA receptors, % of Control: diacid 100 μM, % of control binding ± s.d., corrected for nonspecific binding
Protocol: as §2, §3
(§4) Binding to NMDA, KA, and QA receptors were quantified with ^3 H-L-glutamate, ^3 H-KA, and ^3 H-AMPA respectively. The binding assays were carried out using optimally selective conditions of time, temperature, and buffer for each of the three receptor classes. ^3 H-L-Glutamate binding was quantified under conditions that selectively label NMDA receptors. The SPMs were incubated with ^3 H-L-glutamate (10 nM, 50.9 Ci/mmol) in 50 mM Tris-acetate, pH 7.0, at 4° C. for 30 minutes. Non-specific binding was determined by the inclusion of 500 μM L-glutamate. KA receptors were quantified as previously described. ^3 H-KA (10 nM, 60 Ci/mmol) binding was determined in 50 mM Tris-citrate buffer, pH 7.0, at 4° C. for 30 min. Non-specific binding was determined by the inclusion of 100 μM unlabeled KA. QA receptors were measured with ^3 H-AMPA binding as described by Honore et al. J. Neurochem. 38:173-178 (1982). Essentially, 3 H-AMPA (10 nM, 27.6 Ci/mmol) binding is quantified in 50 mM Tris-acetate buffer, pH 7.2, containing 100 mM KSCN for 30 minutes at 4° C. Non-specific binding was determined by the inclusion of 100 μM quisqualic acid. In the inhibition studies, the conformationally defined analogues were included in the assay mixture at the appropriate concentrations (0.1-200 μM). The assays (total volume, 1.08 mL) were initiated by the addition of radiolabel and terminated by centrifugation (Beckman Microfuge, top speed, 3 min). Unbound radioligand in the supernatant was removed by suction and the radioactivity in the pellet quantified by liquid scintillation counting. All of the binding studies were carried out as 2 sets of triplicates within a single experiment and each experiment was repeated at least 3 times.

QA receptors = assay: 3H-AMPA binding to QA receptors in synaptic plasma membranes; set-up: species or system rat; conditions: for ^3 H-AMPA binding to QA receptors, % of Control: diacid 100 μM, % of control binding ± s.d., corrected for nonspecific binding
Protocol: as §2, §3, §4

[1] = target: T1, high affinity transport of 3H-L-glutamate into synaptosomes (Rattus norvegicus, UniProt P31596); assay: Synaptosomal uptake of 3H-L-glutamate; type: biochemical; conditions: 10 μM 3H-L-glutamate; for inhibition of glutamate transport (in words): isomers at similar concentrations (20 μM)
T1 construct: Synaptosomes were prepared by the procedure of Booth et al; from tissue; host or cells: brain synaptosomes (Ficoll/sucrose gradient)
Protocol: Synaptosomal uptake of ^3 H-L-glutamate (10 μM) was followed at 37° C. in the presence and absence of 20 μM PDC isomers. The curves shown are from representative experiments (n=2-4 rate determinations) and are reported as mean ±SD. Transport rates were determined by linear regression analysis and have been corrected for background and non-specific uptake. The effect of the PDC isomers and is reported as % of control transport rate ±SD (n=8-16 rate determinations).
as §1
Synaptosomes were prepared by the procedure of Booth et al., (Biochem J. 176:365 (1978) incorporated by reference herein), using Ficoll/sucrose gradient centrifugation. Uptake of ^3 H-L-glutamate was followed essentially as described by Kuhar and Zarbin (J. Neurochem 31:[…] (1978) incorporated by reference herein.) Synaptosomes were suspended in a physiological buffer (Krebs-Ringer phosphate buffer) and preincubated at 37° C. for 5 min. The uptake assay was initiated by the addition of ^3 H-L-glutamate (0.1-100 μM). Aliquots were removed at appropriate times (0.5-10 min) and were rapidly filtered on GF/F glass fiber filters. The filters were rapidly washed with 20 volumes of ice cold buffer. Radioactivity present on the filters was determined by liquid scintillation counting. Uptake rates were corrected for both background (i.e., uptake at 0 min) and leakage (i.e., uptake at 0° C.).

T1 sequence (P31596 whole entry): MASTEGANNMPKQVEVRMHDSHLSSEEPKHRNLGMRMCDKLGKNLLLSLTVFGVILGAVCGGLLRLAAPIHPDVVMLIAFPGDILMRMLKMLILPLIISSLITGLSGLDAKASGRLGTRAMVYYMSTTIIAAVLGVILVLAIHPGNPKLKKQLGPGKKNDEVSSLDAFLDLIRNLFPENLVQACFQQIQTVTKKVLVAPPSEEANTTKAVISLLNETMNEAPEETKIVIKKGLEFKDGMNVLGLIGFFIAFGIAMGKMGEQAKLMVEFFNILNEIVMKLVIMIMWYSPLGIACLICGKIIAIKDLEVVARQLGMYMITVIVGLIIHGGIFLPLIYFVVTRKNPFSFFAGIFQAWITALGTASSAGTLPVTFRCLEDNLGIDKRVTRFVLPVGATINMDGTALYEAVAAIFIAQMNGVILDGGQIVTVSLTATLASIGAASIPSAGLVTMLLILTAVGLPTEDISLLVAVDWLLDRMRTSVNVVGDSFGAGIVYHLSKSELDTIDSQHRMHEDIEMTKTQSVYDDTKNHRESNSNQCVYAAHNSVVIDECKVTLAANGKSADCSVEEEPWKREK

Row | Structure (SMILES) | ^3 H-L-GLU binding to NMDA receptors, % of Control (NMDA receptors; diacid 100 μM) | ^3 H-KA binding to KA receptors, % of Control (KA receptors) | ^3 H-AMPA binding to QA receptors, % of Control (QA receptors) | inhibition of glutamate transport (in words) [1] | inhibition of ^3 H-L-glutamate binding to the NMDA receptor (in words) (NMDA receptors) | inhibition of radioligand binding to KA receptors (in words) (KA receptors; compound in 10^4 -fold excess) | inhibition of radioligand binding to QA receptors (in words) (QA receptors; compound in 10^4 -fold excess) | rate of synaptosomal transport ([1]; 20 μM compound, 37° C., control level 1.13) [nmol min^-1 mg-protein^-1] | inhibition at 20 µM ([1]; 20 μM compound, read-out: reduction in the rate of uptake) [%] | ^3 H-L-GLU binding to NMDA receptors, % of Control (NMDA receptors; diacid 20 μM)
1 | O=C(O)[C@@H]1CN[C@H](C(=O)O)C1 [Diacid 4, cis-4-Carboxy-L-proline] | 89 ± 13 % of Control | 100 ± 12 % of Control | 102 ± 12 % of Control | substantially less effective | – | – | – | – | – | –
2 | O=C(O)[C@H]1CN[C@H](C(=O)O)C1 [Diacid 7, trans-4-Carboxy-L-proline] | 87 ± 10 % of Control | 102 ± 10 % of Control | 109 ± 13 % of Control | potent inhibitor | did not significantly inhibit | did not significantly inhibit | did not significantly inhibit | 0.16 | > 80 | –
3 | O=C(O)[C@@H]1CN[C@@H](C(=O)O)C1 [Diacid 11, trans-4-Carboxy-D-proline] | 95 ± 12 % of Control | 92 ± 6 % of Control | 108 ± 11 % of Control | substantially less effective | weakly inhibiting | – | – | – | – | –
4 | O=C(O)[C@H]1CN[C@@H](C(=O)O)C1 [Diacid 14, cis-4-Carboxy-D-proline] | 38 ± 12 % of Control | 101 ± 6 % of Control | 110 ± 9 % of Control | substantially less effective | – | – | – | – | – | 76 ± 5 % of Control
